Experimental data reported in the supplement of paper PMC5412046.
Where a name gives a salt, the structure may show the parent alone.

Legend:
[1] = system: SB.mhdgc-1; experiment: viability at highest tested concentration (MAXR) relative to DMSO; higher = less cytotoxic; conditions: SB.mhdgc-1 (hereditary c.1380delA CDH1 gastric cancer)
In short: (§1)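 Each entry is viability relative to DMSO, given either at the highest concentration tested or as a trapezoidal area under the curve. Gastric cancer cells from hereditary or sporadic patients (500 cells in 5 μL medium per 1536 well) received compound in DMSO at 11 threefold-diluted concentrations, 23 nL by pintool. Luminescence from CellTiter-Glo was read after 48 h.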

[2] = system: SB.msgc-1; experiment: as above; conditions: SB.msgc-1 (sporadic gastric cancer)
In short: as §1

[3] = system: SB.mhdgc-1; experiment: area under the dose-response curve of % viability (trapezoidal, 11 doses) (% viability x log10 concentration); higher = less cytotoxic; conditions: SB.mhdgc-1 (hereditary c.1380delA CDH1 gastric cancer)
In short: as §1

[4] = system: SB.msgc-1; experiment: as above; conditions: SB.msgc-1 (sporadic gastric cancer)
In short: as §1

Compound	viability [1] [%]	viability [2] [%]	area under the dose-response curve [3]	area under the dose-response curve [4]
CC(=O)O[C@H]1C(=O)[C@]2(C)[C@@H](O)C[C@H]3OC[C@@]3(OC(C)=O)C2[C@H](OC(=O)C4=CC=CC=C4)[C@]5(O)C[C@H](OC(=O)[C@H](O)[C@@H](NC(=O)C6=CC=CC=C6)C7=CC=CC=C7)\C(=C1/C5(C)C)C (stereo not given in full) [Paclitaxel] (top concentration 46.0829 µM)	44.1	38.5	297	246
CON(C)C(=O)N1\N=C(/S[C@]1(CCCN)C2=CC=CC=C2)C3=CC(=CC=C3F)F [ARRY-520] (top concentration 46.0829 µM)	3.77	50	287	223
CCN(C)C(=O)Oc1cccc([C@H](C)N(C)C)c1 [Rivastigmine tartrate] (top concentration 46.0829 µM)	106	125	615	594
Cc1nc(Nc2ncc(C(=O)Nc3c(C)cccc3Cl)s2)cc(N2CCN(CCO)CC2)n1 [Dasatinib] (top concentration 46.0829 µM)	53.2	37.8	416	398
CC(C)(C)C(=O)Oc1ccc2c(c1)nc(NC(=O)c1cccc([N+](=O)[O-])c1)n2CCCO (top concentration 46.0829 µM)	53.7	66.2	491	519
CCCCC[C@H](O)/C=C/[C@H]1[C@H](O)CC(=O)[C@@H]1CCCCCCC(=O)O [Alprostadil] (top concentration 46.0829 µM)	54.8	58.2	523	557
COc1cc(-c2nn(C3CCC(N4CCN(C(C)=O)CC4)CC3)c3ncnc(N)c23)ccc1NC(=O)c1cc2ccccc2n1C (stereo not given) (top concentration 46.0829 µM)	3.1	3.58	460	442
COc1ccc(-c2ccc3ncc4c(c3c2)n(-c2ccc(N3CCNCC3)c(C(F)(F)F)c2)c(=O)n4C)cn1 [NVP-BGT226] (top concentration 46.0829 µM)	1.45	0.962	195	305
C[C@]12CC[C@@H]3c4ccc(O)cc4CC[C@H]3[C@@H]1[C@@H](O)[C@@H](O)[C@@H]2O [Estetrol] (top concentration 46.0829 µM)	7.6	78.6	439	549
OC[C@H]1O[C@@H](Oc2cc(O)cc(/C=C/c3ccc(O)cc3)c2)[C@H](O)[C@@H](O)[C@@H]1O [Polydatin] (top concentration 46.0829 µM)	76.4	55.8	594	537
CCCCCCCCCCCC/1=C(O)/C(=O)/C=C(O)\C1=O [Embelin] (top concentration 46.0829 µM)	38.3	27.6	395	393
Cc1cc(Nc2cc(N3CCN(C)CC3)nc(Sc3ccc(NC(=O)C4CC4)cc3)n2)[nH]n1 [Tozasertib] (top concentration 46.0829 µM)	44	97.8	408	525
CCc1nc(N)nc(N)c1-c1ccc(Cl)cc1 [Pyrimethamine] (top concentration 46.0829 µM)	58.8	27.6	455	322
C[S+](=O)([O-])N1CCc2c(-c3cnc(N)nc3)nc(N3CCOCC3)nc21 (top concentration 46.0829 µM)	18.7	40.9	341	373
CN(C)CCCC1(c2ccc(F)cc2)OCc2cc(C#N)ccc21 (stereo not given) [Citalopram hydrobromide] (top concentration 46.0829 µM)	55.1	36.7	483	330
COc1cccc2c1[C@]13CCN(CC4CC4)[C@H](C2)[C@]1(OC)CCC(=O)C3 [Cyprodime] (top concentration 46.0829 µM)	125	112	567	526
Cc1cc(C(C)(C)C)c(O)c(C)c1CC1=NCCN1 [Oxymetazoline hydrochloride] (top concentration 46.0829 µM)	79.9	117	473	522
O=C1CSC(=O)N1C(CCc1ccncc1)COc1ccc(-c2cccc([N+](=O)[O-])c2)cc1 (stereo not given) (top concentration 46.0829 µM)	16.8	34.1	347	454

Compound	viability [1] [%]	viability [2] [%]	area under the dose-response curve [3]	area under the dose-response curve [4]
NC(=O)c1cccc2cn(-c3ccc([C@@H]4CCCNC4)cc3)nc12 [Niraparib] (top concentration 46.0829 µM)	27.8	76	452	513
COC(=O)[C@@H]1[C@H]2C[C@H]3c4[nH]c5ccccc5c4CCN3C[C@@H]2CC[C@@H]1O [Yohimbine] (top concentration 46.0829 µM)	105	103	560	559
CN1C(=O)C(=C\C2=C1N=C(NC3=CC=CC(=C3)C(O)=O)N=C2)/C4=C(Cl)C=CC=C4Cl (top concentration 46.0829 µM)	59.3	44.5	518	407
CC[C@@]1(O)C(=O)OC\C2=C1\C=C3/N(CC4=CC5=C(C=CC(=C5CN(C)C)O)N=C34)C2=O [Topotecan hydrochloride] (top concentration 46.0829 µM)	48.2	26.5	241	338
CC1=CC=C(C=C1)\C2=N\C3=CC=C(Cl)C=C3OC2 [AR7] (top concentration 46.0829 µM)	39.3	35.4	506	446
O=C(NC1CCNCC1)c1n[nH]cc1NC(=O)c1c(Cl)cccc1Cl [AT-7519] (top concentration 46.0829 µM)	67.2	40.8	411	403
COc1cc(OC2CCN(C)CC2)ccc1Nc1ncc2c(n1)n(C1CCCC1)c(=O)n2C [AZ-3146] (top concentration 46.0829 µM)	1.98	26.1	430	439
C=C1/C(=C\C=C2/CCC[C@]3(C)[C@@H]([C@H](C)CCCC(C)(C)O)CC[C@@H]23)C[C@@H](O)C[C@@H]1O [Calcitriol] (top concentration 46.0829 µM)	40.5	7.21	437	418
NC(=O)c1cccc(N)c1 (top concentration 46.0829 µM)	82.3	79.2	494	485
OC1=CC=C(C=C1)C/2=C/C3=C(OC2)C=C(O)C=C3 [Idronoxil] (top concentration 46.0829 µM)	87.5	85	539	519
Nc1ncnc2c1c(-c1cnc3[nH]ccc3c1)nn2C1CCCC1 [PP-121] (top concentration 46.0829 µM)	7.09	17.2	361	431
CC1(C)CCC(C)(C)c2cc(NC(=O)c3ccc(C(=O)O)cc3)ccc21 [Tamibarotene] (top concentration 46.0829 µM)	104	61.8	561	439
C#C[C@]1(O)CC[C@H]2[C@@H]3CCc4cc(O)ccc4[C@H]3CC[C@@]21C [Ethinylestradiol] (top concentration 46.0829 µM)	3.31	2.36	496	290
C[C@H](NC(=O)c1sccc1OCc1ccc(Cl)cc1)c1ccccc1 (top concentration 46.0829 µM)	45.7	43.3	435	491
C[S+](=O)([O-])OCCCCO[S+](C)(=O)[O-] [Busulfan] (top concentration 46.0829 µM)	23.2	52.1	501	510
CCC[S+](=O)([O-])Nc1ccc(F)c(C(=O)c2c[nH]c3ncc(-c4ccc(Cl)cc4)cc23)c1F [Vemurafenib] (top concentration 46.0829 µM)	52.4	38	507	537
C=C[C@H]1CN2CCC1C[C@@H]2C(O)c1ccnc2ccc(OC)cc12 (stereo not given in full) [Quinidine] (top concentration 46.0829 µM)	75.6	104	599	523
